Results reported in patent US20240294572A1, “Antimicrobial Peptides” (priority 2021, published 2024).
≈ marks a conversion by molar mass, not a printed value. Non-standard residues stand in square brackets, D forms with d. Residues, ends and D or L forms follow the SMILES beside them. No end group written: not given here. *: point of attachment. Myristoyl = CCCCCCCCCCCCCC(=O)*; Lauroyl = CCCCCCCCCCCC(=O)*; Octanoyl = CCCCCCCC(=O)*

Tests used:
Assay type in all cases: cell-based
[1] = test system: Klebsiella pneumonia ATCC 13883; test: Antibacterial broth microdilution MIC
Experimental: (§1) The antibacterial activity of peptides was evaluated using a standard broth microdilution protocol (Clinical Laboratories Standards Institute (CLSI): M07-A10. Methods for Dilution Antimicrobial Susceptibility Tests for Bacteria that grow aerobically; Approved Standard, Tenth Edition, 2015) with minor modifications as described (Mishra, et al. (2019) Proc. Natl. Acad. Sci., 116:13517-13522). In brief, peptides (10 μL per well) with 2-fold dilutions were made in 96-well polystyrene microplates. Subsequently, the logarithmic phase bacterial cultures (i.e., optical density at 600 nm ˜0.5) were diluted to 0.001 OD and aliquoted to 90 μL per well. The plates were incubated overnight at 37°° C. Bacterial controls were treated with water, and the wells containing only the TSB media were used as blank. Positive controls included the parent peptide LL-37 as well as KR12. Post incubation, the plates were read at 630 nm using ChroMate® 4300 Microplate Reader (Awareness Technology, FL).

E. coli ATCC 25922 = test system: E. coli ATCC 25922
Experimental: as §1
(§2) To study the influence of medium conditions on the antimicrobial activity of peptides against S. aureus USA300, different pH, sodium chloride (NaCl), human sera were included into the antibacterial assays. Control experiments in TSB without any additions (pH 7.4) were set up in the same manner. In addition, antimicrobial activities of human LL-37, KR12, and C10-KR8d were compared in 10%, 50%, and 100% TSB as well as in TSB and MHB using E. coli ATCC 25922 and S. aureus USA300 LAC.

[2] = test system: human red blood cells (hRBCs); conditions: red cells of human, 1 h
Experimental: Hemolytic assays of peptides were performed as described (Lakshmaiah, et al. (2020) Proc. Natl. Acad. Sci., 117:19446-19454). Briefly, human red blood cells (hRBCs) were obtained from UNMC Blood Bank. The cells were washed 3× with isotonic saline (0.9% NaCl) and diluted to 2% (v/v). Peptides at various concentrations were added to the 2% blood cells and incubated at 37° C. for 1 hour. Post-incubation, the plates were spun at 2000 rpm for 10 minutes; aliquots of the supernatant were carefully transferred to a fresh 96-well microplate. The amount of cells lysed is proportional to the hemoglobin released and was measured at 545 nm using a ChroMate® microplate reader (Awareness Technology, FL). The percent lysis was calculated by assuming 100% release when human blood cells were treated with 1% Triton™ X-100, and 0% release when incubated with PBS. The peptide concentration that caused 50% lysis of hRBCs is defined as HC50. The cell selectivity index (CSI) was calculated as the ratio between HC50 and the MIC of the corresponding peptide against MRSA.

S. aureus Mu50 = test system: S. aureus Mu50
Experimental: as §1

S. aureus USA400 = test system: S. aureus USA400
Experimental: as §1

S. aureus USA200 = test system: S. aureus USA200
Experimental: as §1

S. aureus Newman = test system: S. aureus Newman
Experimental: as §1

S. aureus USA300 LAC [3] = conditions: USA300
Experimental: as §1, §2

P. aeruginosa PAO1 = test system: P. aeruginosa PAO1
Experimental: as §1

S. aureus USA300 = test: Bacterial membrane depolarization (DiBAC4(3)); conditions: 3.1, 6.25, 12.5, and 25 μM; 40 minutes
Experimental: The experiment was conducted as described (Marks, et al. (2013) PLOS One 8:e63158). In brief, an overnight culture of S. aureus USA300 was subcultured in a fresh TSB medium and grown to the exponential phase. Cells were spun using centrifugation, washed 2× with PBS, resuspended in twice the volume of PBS containing 25 mM glucose, and incubated at 37° C. for 15 minute. For membrane depolarization measurements, 500 nM (final concentration) of the dye DiBAC4 (3) bis(1,3-dibutylbarbituric acid) trimethine oxonol (ANASPEC, CA) was added, and the reaction mixture was vortexed gently. Aliquots of 90 μL of the energized bacteria solution were loaded to the wells, and the plate was fed into a FLUOstar® Omega microplate reader. Fluorescence was read for 20 minutes at excitation and emission wavelengths of 485 and 520 nm, respectively, to get dye normalization. Then, 10 μL of the peptide solution was added and gently mixed. Fluorescence readings were recorded for 40 minutes, where Triton™ X-100 (0.1%) was used as a positive control.

S. aureus USA300 LAC [4] = test: Bacterial resistance development, multiple passage experiment; conditions: 14 passages/days at sub-MIC
Experimental: This experiment was performed similar to the MIC determination with a few modifications as described (Mishra, et al. (2019) Proc. Natl. Acad. Sci., 116:13517-13522). In short, an exponential phase S. aureus USA300 culture (i.e., optical density at 600 nm≈0.5) was diluted and partitioned into a 96-well polystyrene microplate with ˜10^5 bacteria per well (90 μL aliquots). After treatment with 10 μL of peptide or nafcillin solutions at various concentrations, microplates were incubated at 37° C. overnight and read on a ChroMate® 4300 Microplate Reader at 630 nm (Awareness Technology, FL). Of the wells with sub-MIC levels of the peptides that retained growth, approximately half of the control wells were again reinoculated in fresh TSB with sub-MIC concertation of peptides or antibiotics to attain exponential phase for MIC determination. Up to 15 serial passages of the bacteria cultures were conducted. The increase in the fold change (MIC on given passage/MIC recorded in first day of passage) was used to determine the degree of drug resistance.

S. aureus USA300 LAC [5] = test: Bacterial membrane permeation (propidium iodide); conditions: 12.5 μM
Experimental: The experiment was performed as described with minor modifications (Mishra, et al. (2019) Proc. Natl. Acad. Sci., 116:13517-13522). Serially diluted 10×peptides (10 μL each well) were created in 96-well microtiter plates. Propidium iodide (2 μL) at a fixed concentration of 20 μM was added to each well followed by 88 μL of the exponential phase S. aureus USA300 culture (a final OD600˜0.1 in TSB media or PBS). Both daptomycin (98%, TSZChem, MA) and rifamycin (98%, Alfa Aesar, MA) were used as controls. The plate was incubated at 37° C. with continuous shaking at 100 rpm in a FLUOstar® Omega (BMG LABTECH, NC) microplate reader. The samples fluorescence was read at every 5 minutes for 24 cycles with excitation and emission wavelengths of 584 and 620 nm, respectively. Plots were generated using average values from the experiments using GraphPad Prism 7.

| Molecule | MIC (μM) KP [1] | MIC (μM) EC (E. coli ATCC 25922) | HC50 [2] | MIC (μM) SA (S. aureus USA300 LAC [3]) | MIC (μM) PA (P. aeruginosa PAO1) | further results |
| --- | --- | --- | --- | --- | --- | --- |
| CCCCCCCC(=O)N[C@H](CCCCN)C(=O)N[C@H](CCCNC(=N)N)C(=O)N[C@@H](C(=O)N[C@H](Cc1c[nH]c2ccccc12)C(=O)N[C@H](CCC(N)=O)C(=O)N[C@H](CCCNC(=N)N)C(=O)N[C@@H](C(=O)N[C@H](CCCCN)C(=O)N[C@H](CC(=O)O)C(=O)N[C@H](Cc1ccccc1)C(N)=O)[C@H](C)CC)[C@H](C)CC [Peptide C8-KR10d] (Octanoyl-[dK][dR][dI][dW][dQ][dR][dI][dK][dD][dF]-NH2) | 12.5 µM (≈ 18.9 µg/mL) | 6.2 µM (≈ 9.39 µg/mL) | 150 µM | – | – | Minimal inhibitory concentration, Mu50 (S. aureus Mu50): 3.1 µM (≈ 4.7 µg/mL); Minimal inhibitory concentration, USA400 (S. aureus USA400): 3.1 µM (≈ 4.7 µg/mL); Minimal inhibitory concentration, USA200 (S. aureus USA200): 3.1 µM (≈ 4.7 µg/mL); Minimal inhibitory concentration, Newman (S. aureus Newman): 3.1 µM (≈ 4.7 µg/mL) |
| CCCCCCCCCCCC(=O)N[C@@H](CCCCN)C(=O)N[C@@H](CCCNC(=N)N)C(=O)N[C@H](C(=O)N[C@@H](Cc1c[nH]c2ccccc12)C(=O)N[C@@H](CCC(N)=O)C(=O)N[C@@H](CCCNC(=N)N)C(=O)N[C@H](C(=O)N[C@@H](CCCCN)C(N)=O)[C@@H](C)CC)[C@@H](C)CC [Peptide C12-KR8] (Lauroyl-KRIWQRIK-NH2) | >50 µM | 6.2 µM (≈ 8.11 µg/mL) | 35 µM | 1.5 µM (≈ 1.96 µg/mL) | 3.1 µM (≈ 4.06 µg/mL) | – |
| CCCCCCCCCCCC(=O)N[C@@H](CCCCN)C(=O)N[C@@H](CCCNC(=N)N)C(=O)N[C@H](C(=O)N[C@@H](Cc1c[nH]c2ccccc12)C(=O)N[C@@H](CCC(N)=O)C(=O)N[C@@H](CCCNC(=N)N)C(=O)N[C@H](C(=O)N[C@@H](CCCCN)C(=O)N[C@@H](CC(=O)O)C(=O)N[C@@H](Cc1ccccc1)C(=O)N[C@@H](CC(C)C)C(=O)N[C@@H](CCCNC(=N)N)C(N)=O)[C@@H](C)CC)[C@@H](C)CC [Peptide C12-KR12] (Lauroyl-KRIWQRIKDFLR-NH2) | 12.5 µM (≈ 23 µg/mL) | >50 µM | <25 µM | 6.2 µM (≈ 11.4 µg/mL) | >50 µM | – |
| CCCCCCCCCCCCCC(=O)N[C@@H](CCCCN)C(=O)N[C@@H](CCCNC(=N)N)C(=O)N[C@H](C(=O)N[C@@H](Cc1c[nH]c2ccccc12)C(N)=O)[C@@H](C)CC [Peptide C14-KR4] (Myristoyl-KRIW-NH2) | 12.5 µM (≈ 10.1 µg/mL) | 12.5 to 50 µM | <25 µM | 3.1 µM (≈ 2.51 µg/mL) | 6.2 µM (≈ 5.03 µg/mL) | – |
| CCCCCCCCCCCCCC(=O)N[C@@H](CCCCN)C(=O)N[C@@H](CCCNC(=N)N)C(=O)N[C@H](C(=O)N[C@@H](Cc1c[nH]c2ccccc12)C(=O)N[C@@H](CCC(N)=O)C(=O)N[C@@H](CCCNC(=N)N)C(N)=O)[C@@H](C)CC [Peptide C14-KR6] (Myristoyl-KRIWQR-NH2) | >50 µM | 12.5 µM (≈ 13.7 µg/mL) | <25 µM | 3.1 µM (≈ 3.4 µg/mL) | 6.2 µM (≈ 6.79 µg/mL) | – |
| CCCCCCCCCCCCCC(=O)N[C@@H](CCCCN)C(=O)N[C@@H](CCCNC(=N)N)C(=O)N[C@H](C(=O)N[C@@H](Cc1c[nH]c2ccccc12)C(=O)N[C@@H](CCC(N)=O)C(=O)N[C@@H](CCCNC(=N)N)C(=O)N[C@H](C(=O)N[C@@H](CCCCN)C(N)=O)[C@@H](C)CC)[C@@H](C)CC [Peptide C14-KR8] (Myristoyl-KRIWQRIK-NH2) | >50 µM | 12.5 µM (≈ 16.7 µg/mL) | <25 µM | <1.5 µM | 6.2 µM (≈ 8.29 µg/mL) | – |
| CCCCCCCCCCCCCC(=O)N[C@@H](CCCCN)C(=O)N[C@@H](CCCNC(=N)N)C(=O)N[C@H](C(=O)N[C@@H](Cc1c[nH]c2ccccc12)C(=O)N[C@@H](CCC(N)=O)C(=O)N[C@@H](CCCNC(=N)N)C(=O)N[C@H](C(=O)N[C@@H](CCCCN)C(=O)N[C@@H](CC(=O)O)C(=O)N[C@@H](Cc1ccccc1)C(N)=O)[C@@H](C)CC)[C@@H](C)CC [Peptide C14-KR10] (Myristoyl-KRIWQRIKDF-NH2) | 6.2 µM (≈ 9.91 µg/mL) | 50 µM (≈ 80 µg/mL) | <25 µM | 3.1 µM (≈ 4.96 µg/mL) | 12.5 µM (≈ 20 µg/mL) | – |
| CCCCCCCCCC(=O)N[C@@H](Cc1c[nH]c2ccccc12)C(=O)N[C@H](CC(N)=O)C(=O)N[C@@H](CC(=O)O)C(=O)N[C@@H]1C(=O)NCC(=O)N[C@@H](CCCN)C(=O)N[C@@H](CC(=O)O)C(=O)N[C@H](C)C(=O)N[C@@H](CC(=O)O)C(=O)NCC(=O)N[C@H](CO)C(=O)N[C@@H]([C@H](C)CC(=O)O)C(=O)N[C@@H](CC(=O)c2ccccc2N)C(=O)O[C@@H]1C [daptomycin, reference compound] | – | – | – | – | – | membrane depolarization ability (order) (S. aureus USA300): Triton™ X-100>17BIPHE2>C10-KR8d>daptomycin |
| CCOc1ccc2ccccc2c1C(=O)N[C@@H]1C(=O)N2[C@@H]1SC(C)(C)[C@@H]2C(=O)O [nafcillin, reference compound] | – | – | – | – | – | MIC increase in multiple passage experiment (S. aureus USA300 LAC [4]): over 30 fold |
| CO[C@H]1/C=C/O[C@@]2(C)Oc3c(C)c(O)c4c(O)c(cc(O)c4c3C2=O)NC(=O)/C(C)=C\C=C\[C@H](C)[C@H](O)[C@@H](C)[C@@H](O)[C@@H](C)[C@H](OC(C)=O)[C@@H]1C [rifamycin, reference compound] | – | – | – | – | – | membrane permeation (propidium iodide fluorescence) (S. aureus USA300 LAC [5]): unable to achieve the same effect |
| KRIVQRIKDFLR-NH2 [KR12, reference compound] | >50 µM | 50 µM | >340 µM | – | 25 µM | Minimal inhibitory concentration against S. aureus, 10% TSB (S. aureus USA300 LAC [3]): 6.2 µM; Minimal inhibitory concentration against S. aureus, 50% TSB (S. aureus USA300 LAC [3]): >50 µM; Minimal inhibitory concentration against S. aureus, 100% MHB (S. aureus USA300 LAC [3]): >50 µM; Minimal inhibitory concentration against S. aureus, 100% TSB (S. aureus USA300 LAC [3]): >50 µM; Minimal inhibitory concentration against E. coli, 10% TSB (E. coli ATCC 25922): 1.6 µM; Minimal inhibitory concentration against E. coli, 50% TSB (E. coli ATCC 25922): 3.1 µM; Minimal inhibitory concentration against E. coli, 100% MHB (E. coli ATCC 25922): >50 µM |
